According to patent US10669269B2, “Substituted N-(1H-indazol-4-yl)imidazo[1,2-a]pyridine-3-carboxamide compounds as type III receptor tyrosine kinase inhibitors” (ARRAY BIOPHARMA INC., priority 2010, dated 2020):
pIC50: −log10 of the molar value. Where a name gives a salt, the structure may show the parent alone.

Tests used:
c-KIT = molecular target: T1, c-KIT (Homo sapiens, UniProt P10721); experiment: c-KIT Cell-Based Assay (Example D); conditions: averaged IC50; phospho-c-KIT in M-07e cells stimulated with 150 ng/ml recombinant human SCF; read-out: cKIT Cell ELISA IC50
T1 construct: M-07e cells (human acute megakaryoblastic leukemia cell line) were serum-starved for 4 hours; endogenous in cells; host or cells: M-07e cells (human acute megakaryoblastic leukemia cell line)
T1 sequence (P10721 26-976): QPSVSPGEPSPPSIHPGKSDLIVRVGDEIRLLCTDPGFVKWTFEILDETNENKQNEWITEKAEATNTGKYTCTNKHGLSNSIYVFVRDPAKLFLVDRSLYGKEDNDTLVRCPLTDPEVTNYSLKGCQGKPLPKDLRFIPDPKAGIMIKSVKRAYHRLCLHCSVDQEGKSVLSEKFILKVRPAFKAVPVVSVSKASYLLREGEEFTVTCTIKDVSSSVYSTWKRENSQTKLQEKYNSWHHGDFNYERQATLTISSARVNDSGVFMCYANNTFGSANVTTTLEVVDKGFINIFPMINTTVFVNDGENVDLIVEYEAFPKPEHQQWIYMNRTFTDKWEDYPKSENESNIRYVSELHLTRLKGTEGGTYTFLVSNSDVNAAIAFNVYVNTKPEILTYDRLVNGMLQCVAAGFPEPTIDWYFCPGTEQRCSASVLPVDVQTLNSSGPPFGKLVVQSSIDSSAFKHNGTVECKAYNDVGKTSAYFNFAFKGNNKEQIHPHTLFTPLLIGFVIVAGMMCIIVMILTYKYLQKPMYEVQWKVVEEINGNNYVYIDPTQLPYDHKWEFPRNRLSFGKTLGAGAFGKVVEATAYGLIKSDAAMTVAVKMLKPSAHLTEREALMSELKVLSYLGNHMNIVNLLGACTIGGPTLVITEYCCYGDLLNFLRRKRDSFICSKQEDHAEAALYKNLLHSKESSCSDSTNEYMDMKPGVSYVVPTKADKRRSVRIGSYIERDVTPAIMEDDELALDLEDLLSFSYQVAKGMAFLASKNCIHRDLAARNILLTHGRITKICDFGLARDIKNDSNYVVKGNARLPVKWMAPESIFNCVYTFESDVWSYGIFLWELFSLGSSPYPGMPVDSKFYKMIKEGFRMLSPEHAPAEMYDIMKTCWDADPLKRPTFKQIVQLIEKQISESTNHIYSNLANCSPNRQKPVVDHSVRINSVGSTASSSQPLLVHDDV
Outline: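 Phospho-c-KIT ELISA readout, calibrated with purified phospho-SCF R, gave IC50 (4-parameter fit, 50% of control). Before lysis, M-07e cells were starved 4 h, exposed 1 h to a 9-point 3-fold series (highest usually 5,000 nM), and stimulated with 150 ng/ml SCF for 4 min.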

cFMS = molecular target: T2, cFMS (Homo sapiens, UniProt P07333); experiment: cFMS Cell-Based Assay (Example C); conditions: averaged IC50; phospho-cFMS in THP-1 cells stimulated with 250 ng/mL recombinant human MCSF; read-out: cFMS Cell ELISA IC50
T2 construct: THP-1 cells (human acute monocytic leukemia cell line) were serum-starved for 4 hours; endogenous in cells; host or cells: THP-1 cells (human acute monocytic leukemia cell line)
T2 sequence (P07333 20-972): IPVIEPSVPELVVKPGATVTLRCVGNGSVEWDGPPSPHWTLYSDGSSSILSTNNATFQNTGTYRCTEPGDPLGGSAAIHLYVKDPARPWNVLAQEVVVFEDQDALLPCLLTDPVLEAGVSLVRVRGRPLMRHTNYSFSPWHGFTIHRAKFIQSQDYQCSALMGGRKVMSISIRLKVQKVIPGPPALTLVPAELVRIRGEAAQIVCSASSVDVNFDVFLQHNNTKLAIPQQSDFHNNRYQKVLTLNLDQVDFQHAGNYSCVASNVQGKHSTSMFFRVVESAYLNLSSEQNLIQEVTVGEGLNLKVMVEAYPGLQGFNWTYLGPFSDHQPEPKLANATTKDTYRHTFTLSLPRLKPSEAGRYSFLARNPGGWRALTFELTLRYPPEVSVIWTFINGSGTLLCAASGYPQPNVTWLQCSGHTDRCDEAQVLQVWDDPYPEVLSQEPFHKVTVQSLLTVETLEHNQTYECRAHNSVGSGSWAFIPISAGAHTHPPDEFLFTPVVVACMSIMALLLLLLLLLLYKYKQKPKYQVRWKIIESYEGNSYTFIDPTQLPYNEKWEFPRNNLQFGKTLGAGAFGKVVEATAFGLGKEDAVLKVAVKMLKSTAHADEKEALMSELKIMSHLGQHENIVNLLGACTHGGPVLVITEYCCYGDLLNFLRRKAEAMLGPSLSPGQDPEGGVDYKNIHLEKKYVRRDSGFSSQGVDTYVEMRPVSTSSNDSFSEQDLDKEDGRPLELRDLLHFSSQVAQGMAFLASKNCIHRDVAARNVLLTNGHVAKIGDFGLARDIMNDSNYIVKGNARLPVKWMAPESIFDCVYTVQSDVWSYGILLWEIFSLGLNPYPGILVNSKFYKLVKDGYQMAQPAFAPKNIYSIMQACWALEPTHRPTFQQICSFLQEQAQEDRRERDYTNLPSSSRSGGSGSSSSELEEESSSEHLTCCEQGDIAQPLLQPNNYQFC
Outline: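 Phosphotyrosine on cFMS, captured from lysates and quantified by ELISA, reads receptor activation after 1 min of 250 ng/mL human MCSF. Beforehand, THP-1 cells were serum-starved for 4 h and exposed to compound for 1 h (9 points, 3-fold, typically up to 5,000 nM). IC50 from a 4-parameter logistic fit as 50 percent of control.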

PDGFR beta [1] = molecular target: T3, PDGFR beta (Homo sapiens, UniProt P09619); experiment: Phospho PDGFR Cell Assay, sandwich ELISA (Example A); type: cell-based; conditions: averaged IC50, PDGFR beta phosphorylation in HS27 human fibroblast cell line, PDGF-BB stimulation 5 minutes
T3 construct: endogenous in cells; host or cells: HS27 human fibroblast cell line
T3 sequence (P09619 33-1106): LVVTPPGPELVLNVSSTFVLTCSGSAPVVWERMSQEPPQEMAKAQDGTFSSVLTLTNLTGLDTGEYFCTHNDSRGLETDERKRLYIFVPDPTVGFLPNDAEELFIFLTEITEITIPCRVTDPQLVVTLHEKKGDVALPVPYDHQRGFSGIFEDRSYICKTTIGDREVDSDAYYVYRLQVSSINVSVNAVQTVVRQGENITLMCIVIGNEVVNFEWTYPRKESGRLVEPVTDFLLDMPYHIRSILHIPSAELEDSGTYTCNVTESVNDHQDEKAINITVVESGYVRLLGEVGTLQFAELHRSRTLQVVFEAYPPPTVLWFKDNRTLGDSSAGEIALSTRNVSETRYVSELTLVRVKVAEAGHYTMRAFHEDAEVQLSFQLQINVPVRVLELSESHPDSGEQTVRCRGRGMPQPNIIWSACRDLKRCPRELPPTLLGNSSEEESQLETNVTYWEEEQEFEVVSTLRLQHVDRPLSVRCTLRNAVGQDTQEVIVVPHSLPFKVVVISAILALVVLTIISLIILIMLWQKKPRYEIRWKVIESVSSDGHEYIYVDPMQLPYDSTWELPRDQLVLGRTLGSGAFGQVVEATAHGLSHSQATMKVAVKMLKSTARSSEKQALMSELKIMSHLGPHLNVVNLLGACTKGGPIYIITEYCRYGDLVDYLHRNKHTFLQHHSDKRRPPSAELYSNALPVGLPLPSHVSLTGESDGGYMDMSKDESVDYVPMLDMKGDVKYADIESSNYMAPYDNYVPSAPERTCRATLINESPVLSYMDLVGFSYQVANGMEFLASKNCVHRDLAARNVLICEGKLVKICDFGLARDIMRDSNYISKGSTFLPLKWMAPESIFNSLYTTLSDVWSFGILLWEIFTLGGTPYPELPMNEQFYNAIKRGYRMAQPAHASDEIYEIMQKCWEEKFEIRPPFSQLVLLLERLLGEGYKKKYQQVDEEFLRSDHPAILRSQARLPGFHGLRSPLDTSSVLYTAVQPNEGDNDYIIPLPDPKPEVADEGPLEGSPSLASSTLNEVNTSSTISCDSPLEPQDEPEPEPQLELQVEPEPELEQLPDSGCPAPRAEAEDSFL
Description: Compounds were screened for inhibition of PDGFR beta phosphorylation in the HS27 human fibroblast cell line. Cells were seeded into a 96 well tissue culture plate, then incubated overnight in a 37° C., 5% CO2 incubator. The following day, cells were treated for one hour with test compound dilutions. After stimulation with PDGF-BB ligand for 5 minutes, cells were lysed and added to a sandwich ELISA plate from R&D Systems to detect levels of phospho PDGFR beta. A standard 4-parameter logistic model was fit to the inhibitor dose response curves, with the IC50 being defined as the concentration of inhibitor giving 50 percent of control (POC).

PDGFR beta [2] = molecular target: T3, PDGFR beta; experiment: Phospho PDGFR LICOR Cell Assay (Example B); type: cell-based; conditions: averaged IC50; PDGFR beta phosphorylation in HS27 human fibroblast cell line, PDGF-BB stimulation 10 minutes, normalized to total ERK
Outline: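 Read-out is in-cell phospho-PDGFRβ/total-ERK infrared immunofluorescence in HS27 fibroblasts. Cells got 1 h compound exposure before a 10 min PDGF-BB challenge. A 4-parameter logistic fit gave IC50 as the concentration yielding 50 percent of control.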

| SMILES | pIC50 (c-KIT) | pIC50 (cFMS) | pIC50 (PDGFR beta [1]) | pIC50 (PDGFR beta [2]) |
| --- | --- | --- | --- | --- |
| CC(C)N1CCN(CCOc2ccn3c(C(=O)Nc4cccc5c4c(F)nn5Cc4cccc(C5CC5)n4)cnc3c2)CC1 [Example 22, N-(1-((6-cyclopropylpyridin-2-yl)methyl)-3-fluoro-1H-indazol-4-yl)-7-(2-(4-isopropylpiperazin-1-yl)ethoxy)imidazo[1,2-a]pyridine-3-carboxamide] | 8.28 | 8.17 | 7.75 | – |
| Cc1nn(Cc2ccc(F)c(C(C)C)n2)c2cccc(NC(=O)c3cnc4cc(OCCN5CCN(C)[C@@H](C)C5)ccn34)c12 [Example 41, (S)-7-(2-(3,4-dimethylpiperazin-1-yl)ethoxy)-N-(1-((5-fluoro-6-isopropylpyridin-2-yl)methyl)-3-methyl-1H-indazol-4-yl)imidazo[1,2-a]pyridine-3-carboxamide] | 7.06 | 7.01 | 7.71 | – |
| O=C(Nc1cccc2c1cnn2Cc1ccccc1)c1cnc2cc(O)ccn12 [Example 92, N-(1-benzyl-1H-indazol-4-yl)-7-hydroxyimidazo[1,2-a]pyridine-3-carboxamide] | 6.69 | 7.59 | 6.86 | – |
| Cc1cccc(Cn2nc(C)c3c(NC(=O)c4cnc5cc(C(C)NCCO)ccn45)cccc32)n1 (stereo not drawn) [Example 75, 7-(1-(2-hydroxyethylamino)ethyl)-N-(3-methyl-1-((6-methylpyridin-2-yl)methyl)-1H-indazol-4-yl)imidazo[1,2-a]pyridine-3-carboxamide] | 5.30 | 6.37 | ≤ 6.00 | – |
| CCCc1ccc(Cn2nc(C)c3c(NC(=O)c4cnc5cc(OCCN6CCN(C)[C@@H](C)C6)ccn45)cccc32)nc1 [Example 38, (S)-7-(2-(3,4-dimethylpiperazin-1-yl)ethoxy)-N-(3-methyl-1-((5-propylpyridin-2-yl)methyl)-1H-indazol-4-yl)imidazo[1,2-a]pyridine-3-carboxamide] | 6.47 | 7.81 | 6.60 | – |
| Cc1nn(Cc2cccc(CC(C)C)n2)c2cccc(NC(=O)c3cnc4cc(OCCN5CCN(C)[C@@H](C)C5)ccn34)c12 [Example 40, (S)-7-(2-(3,4-dimethylpiperazin-1-yl)ethoxy)-N-(1-((6-isobutylpyridin-2-yl)methyl)-3-methyl-1H-indazol-4-yl)imidazo[1,2-a]pyridine-3-carboxamide] | 7.02 | 7.25 | 7.43 | – |
| Cc1cccc(Cn2nc(C)c3c(NC(=O)c4cnc5cc(N6CCCC6)ccn45)cccc32)n1 [Example 54, N-(3-methyl-1-((6-methylpyridin-2-yl)methyl)-1H-indazol-4-yl)-7-(pyrrolidin-1-yl)imidazo[1,2-a]pyridine-3-carboxamide dihydrochloride] | 6.41 | 8.06 | 6.54 | – |
| Cc1cccc(Cn2nc(C)c3c(NC(=O)c4cnc5ccc(C#N)cn45)cccc32)n1 [Example 62, 6-cyano-N-(3-methyl-1-((6-methylpyridin-2-yl)methyl)-1H-indazol-4-yl)imidazo[1,2-a]pyridine-3-carboxamide] | 5.61 | 6.59 | 6.05 | – |
| Cc1cccc(Cn2nc(C)c3c(NC(=O)c4cnc5cc(-c6ccnn6C)ccn45)cccc32)n1 [Example 71, N-(3-methyl-1-((6-methylpyridin-2-yl)methyl)-1H-indazol-4-yl)-7-(1-methyl-1H-pyrazol-5-yl)imidazo[1,2-a]pyridine-3-carboxamide] | 6.34 | 8.12 | 6.56 | – |
| COCCOc1ccn2c(C(=O)Nc3cccc4c3cnn4CC3CN(C(=O)OC(C)(C)C)CCO3)cnc2c1 (stereo not drawn) [Example 123, tert-butyl 2-((4-(7-(2-methoxyethoxy)imidazo[1,2-a]pyridine-3-carboxamido)-1H-indazol-1-yl)methyl)morpholine-4-carboxylate] | 6.59 | 6.42 | 6.79 | – |
| COCCOc1ccn2c(C(=O)Nc3cccc4c3c(C)nn4CC3CCCCO3)cnc2c1 (stereo not drawn) [Example 82, 7-(2-methoxyethoxy)-N-(3-methyl-1-((tetrahydro-2H-pyran-2-yl)methyl)-1H-indazol-4-yl)imidazo[1,2-a]pyridine-3-carboxamide] | 6.34 | 6.91 | 6.51 | – |
| Cc1cccc(Cn2nc(C)c3c(NC(=O)c4cnc5cc(F)ccn45)cccc32)n1 [Example 53, 7-fluoro-N-(3-methyl-1-((6-methylpyridin-2-yl)methyl)-1H-indazol-4-yl)imidazo[1,2-a]pyridine-3-carboxamide] | 5.34 | 7.13 | ≤ 6.00 | – |
| CN1CCN(CCOc2ccn3c(C(=O)Nc4cccc5c4cnn5Cc4cccc(C#N)c4)cnc3c2)CC1 [Example 99, N-(1-(3-cyanobenzyl)-1H-indazol-4-yl)-7-(2-(4-methylpiperazin-1-yl)ethoxy)imidazo[1,2-a]pyridine-3-carboxamide] | 7.94 | 8.25 | – | 8.19 |
| CCOc1ccn2c(C(=O)Nc3cccc4c3cnn4Cc3ccccc3)cnc2c1 [Example 127, N-(1-benzyl-1H-indazol-4-yl)-7-ethoxyimidazo[1,2-a]pyridine-3-carboxamide] | 7.17 | 7.83 | – | 8.77 |
| COc1ccc2ncc(C(=O)Nc3cccc4c3cnn4Cc3ccccc3)n2c1 [Example 159, N-(1-benzyl-1H-indazol-4-yl)-6-methoxyimidazo[1,2-a]pyridine-3-carboxamide] | 8.01 | 7.58 | – | 7.19 |
| COCCOc1ccn2c(C(=O)Nc3cccc4c3cnn4CC3CCN(C(=O)OC(C)(C)C)CC3)cnc2c1 [Example 122, tert-butyl 4-((4-(7-(2-methoxyethoxy)imidazo[1,2-a]pyridine-3-carboxamido)-1H-indazol-1-yl)methyl)piperidine-1-carboxylate] | 7.22 | 6.88 | – | 7.31 |
| COc1ccn2c(C(=O)Nc3cccc4c3cnn4Cc3ccccc3)cnc2c1 [Example 125, N-(1-benzyl-1H-indazol-4-yl)-7-methoxyimidazo[1,2-a]pyridine-3-carboxamide] | 7.70 | 7.90 | – | 8.68 |
| Cc1cccc(Cn2nc(C)c3c(NC(=O)c4cnc5cc(CCN6CCN(C)CC6)ccn45)cccc32)n1 [Example 78, N-(3-methyl-1-((6-methylpyridin-2-yl)methyl)-1H-indazol-4-yl)-7-(2-(4-methylpiperazin-1-yl)ethyl)imidazo[1,2-a]pyridine-3-carboxamide] | 5.39 | 7.76 | – | 5.47 |
| Cc1nn(Cc2csc(C(C)C)n2)c2cccc(NC(=O)c3cnc4cc(OCCN5CC6(CN(C)C6)C5)ccn34)c12 [Example 13, N-(1-((2-isopropylthiazol-4-yl)methyl)-3-methyl-1H-indazol-4-yl)-7-(2-(6-methyl-2,6-diazaspiro[3.3]heptan-2-yl)ethoxy)imidazo[1,2-a]pyridine-3-carboxamide] | 7.12 | 7.89 | – | 7.95 |
| COCCOc1ccn2c(C(=O)Nc3cccc4c3cnn4Cc3ccccn3)cnc2c1 [Example 112, 7-(2-methoxyethoxy)-N-(1-(pyridin-2-ylmethyl)-1H-indazol-4-yl)imidazo[1,2-a]pyridine-3-carboxamide] | 7.16 | 7.47 | – | 7.78 |
| COCCOc1ccn2c(C(=O)Nc3cccc4c3cnn4Cc3cccc(OCc4ccccc4)c3)cnc2c1 [Example 119, N-(1-(3-(benzyloxy)benzyl)-1H-indazol-4-yl)-7-(2-methoxyethoxy)imidazo[1,2-a]pyridine-3-carboxamide] | 7.64 | 7.58 | – | 7.76 |
| CN1CCN(CCOc2ccn3c(C(=O)Nc4c(Cl)ccc5c4cnn5Cc4cccc(C(F)(F)F)c4)cnc3c2)CC1 [Example 100, N-(5-chloro-1-(3-(trifluoromethyl)benzyl)-1H-indazol-4-yl)-7-(2-(4-methylpiperazin-1-yl)ethoxy)imidazo[1,2-a]pyridine-3-carboxamide] | 8.48 | 7.63 | – | 8.22 |
